Data taken from patent US20080261994A1, “CYCLOPROPANE COMPOUNDS AND PHARMACEUTICAL USE THEREOF” (Japan Tobacco Inc., priority 2003, published 2008).
Where two headings read alike, the source gives them in different places.

How the values were obtained:
Type in all cases: biochemical
[1] = target: T1, aggrecanase-1 (Homo sapiens, UniProt O75173); assay: Aggrecanase-1 inhibitory action (Particle Assay, GAG release from aggrecan-containing polyacrylamide particles)
T1 sequence (O75173 213-837): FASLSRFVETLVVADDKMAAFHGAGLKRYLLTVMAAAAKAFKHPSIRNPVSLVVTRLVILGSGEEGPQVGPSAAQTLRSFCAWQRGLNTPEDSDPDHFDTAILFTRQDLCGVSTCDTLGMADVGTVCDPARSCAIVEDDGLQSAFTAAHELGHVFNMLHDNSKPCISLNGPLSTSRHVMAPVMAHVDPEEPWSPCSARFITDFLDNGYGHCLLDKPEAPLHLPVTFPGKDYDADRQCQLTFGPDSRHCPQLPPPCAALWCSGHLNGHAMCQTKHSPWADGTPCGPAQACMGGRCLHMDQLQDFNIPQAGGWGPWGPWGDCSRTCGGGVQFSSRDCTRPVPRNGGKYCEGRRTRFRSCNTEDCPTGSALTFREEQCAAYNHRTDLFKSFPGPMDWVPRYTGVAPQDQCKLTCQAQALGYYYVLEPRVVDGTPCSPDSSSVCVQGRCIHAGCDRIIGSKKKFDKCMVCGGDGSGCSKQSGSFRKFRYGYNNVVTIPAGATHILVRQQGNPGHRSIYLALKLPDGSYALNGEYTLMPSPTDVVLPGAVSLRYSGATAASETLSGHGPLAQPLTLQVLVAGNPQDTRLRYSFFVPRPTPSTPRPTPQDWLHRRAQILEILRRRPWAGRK
In short: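 Readout was dimethylmethylene blue absorbance (595 nm) of glycosaminoglycan liberated into supernatant, calibrated with whale chondroitin sulfate. Substrate was aggrecan in polyacrylamide particles, digested 15 h at 37° C in Tris-HCl; TC50 (μM) derived from inhibition relative to no-enzyme and no-inhibitor controls.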

[2] = target: T2, MMP-1 (Homo sapiens, UniProt P03956); assay: MMP-1 inhibitory action (Type I collagen Activity Measurement kit, FITC-labeled collagen type I)
T2 sequence (P03956 100-469): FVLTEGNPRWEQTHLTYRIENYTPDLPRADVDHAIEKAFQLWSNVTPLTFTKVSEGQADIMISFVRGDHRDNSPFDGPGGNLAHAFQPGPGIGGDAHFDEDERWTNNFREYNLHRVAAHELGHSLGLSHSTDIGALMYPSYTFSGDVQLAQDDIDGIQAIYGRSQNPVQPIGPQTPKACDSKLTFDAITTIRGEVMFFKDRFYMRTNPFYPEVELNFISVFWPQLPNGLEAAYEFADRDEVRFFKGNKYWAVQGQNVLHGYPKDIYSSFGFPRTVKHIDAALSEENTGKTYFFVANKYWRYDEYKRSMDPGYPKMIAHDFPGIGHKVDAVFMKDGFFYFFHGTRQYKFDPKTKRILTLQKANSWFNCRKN

[3] = target: T3, Recombinant Human MMP-13 (Homo sapiens, UniProt P45452); assay: MMP-13 inhibitory activity (MMP-13 specific fluorescent substrate with quencher)
T3 construct: purchased R&D systems 511-MM
In short: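 IC50 (μM) derived from % inhibition, normalised to wells without enzyme and without inhibitor, fluorescence read at 325/405 nm. Enzyme and compound preceded addition of the quenched 7-MCA…DPA substrate; Tris-HCl buffer, 25 °C for 1 h, acetic-acid stop.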

[4] = Experimental Example 1, read-out: IC50 AG1
[5] = Experimental Example 2, read-out: IC50 MMP1
[6] = Experimental Example 3, read-out: IC50 MMP13
[7] = aggrecanase-1 inhibitory action, read-out: IC50 AG1 (Experimental Example 1)
[8] = MMP-1 inhibitory action, FITC-labeled collagen type I, 37° C. for 3 hr, read-out: IC50 MMP1 (Experimental Example 2)
[9] = Recombinant Human MMP-13, fluorescent substrate, 25° C. for 1 h, read-out: IC50 MMP13 (Experimental Example 3)

| Structure (SMILES) | IC50 [1, 4] | IC50 [2, 5] | IC50 [3, 6] | IC50 [1, 7] | IC50 [2, 8] | IC50 [3, 9] |
| --- | --- | --- | --- | --- | --- | --- |
| CC1C(c2ccccc2)C1(NS(=O)(=O)c1ccc(Cc2ccccc2)s1)C(=O)O (stereo not drawn) [Example 2-508] | ≥ 1000 nM | ≥ 1000 nM | ≥ 1000 nM | – | – | – |
| COCc1cn2cc(S(=O)(=O)N[C@@]3(C(=O)O)C[C@]3(C)c3ccccc3)sc2n1 [Example 2-519] | ≥ 1000 nM | ≥ 1000 nM | ≥ 1000 nM | – | – | – |
| C[C@]1(c2ccccc2)C[C@@]1(NS(=O)(=O)c1ccc(-c2ccc(F)c(C#N)c2)s1)C(=O)O [Example 2-420] | ≥ 1000 nM | ≥ 10000 nM | ≥ 1000 nM | – | – | – |
| CC1[C@H](c2ccccc2)[C@]1(NS(=O)(=O)c1ccc(-c2cc(C(F)F)no2)s1)C(=O)O (stereo partly drawn) [Example 2-354] | < 100 nM | ≥ 1000 nM | < 1000 nM | – | – | – |
| O=C(O)c1ccc(S(=O)(=O)NC2(C(=O)O)CC2c2ccccc2)s1 (stereo not drawn) [Example 2-103] | – | – | – | ≥ 10000 nM | ≥ 10000 nM | ≥ 10000 nM |
| O=C(O)C1(NS(=O)(=O)c2ccc(-c3ccc(Cl)cn3)s2)C2CCCc3ccccc3C21 (stereo not drawn) [Example 2-365] | < 100 nM | < 1000 nM | < 100 nM | – | – | – |
| O=C(O)[C@]1(NS(=O)(=O)c2ccc(C3=NOC(O)(C(F)(F)F)C3)s2)C[C@@H]1c1ccccc1 (stereo partly drawn) [Example 2-35] | – | – | – | < 1000 nM | ≥ 10000 nM | < 1000 nM |
| Cc1cc(-c2ccc(S(=O)(=O)NC3(C(=O)O)C4CCCc5ccccc5C43)s2)no1 (stereo not drawn) [Example 2-375] | < 100 nM | < 1000 nM | < 100 nM | – | – | – |
| CN1CCN(C(=O)CCc2ccccc2C2CC2(NS(=O)(=O)c2ccc(-c3cc(C(F)(F)F)on3)s2)C(=O)O)CC1 (stereo not drawn) [Example 2-232] | – | – | – | < 1000 nM | ≥ 1000 nM | < 100 nM |
| CC1[C@H](c2ccccc2)[C@]1(NS(=O)(=O)c1ccc(-n2cc(CO)cn2)s1)C(=O)O (stereo partly drawn) [Example 2-561] | < 100 nM | < 100 nM | < 100 nM | – | – | – |
| O=C(NCC1(c2ccccc2)CC1(NS(=O)(=O)c1ccc(-c2ccc(Cl)cc2)s1)C(=O)O)c1cccnc1 (stereo not drawn) [Example 2-394] | < 1000 nM | ≥ 1000 nM | < 100 nM | – | – | – |

Now from value to compound:

| IC50 [1, 4] | IC50 [2, 5] | IC50 [3, 6] | IC50 [1, 7] | IC50 [2, 8] | IC50 [3, 9] | Structure (SMILES) |
| --- | --- | --- | --- | --- | --- | --- |
| ≥ 1000 nM | ≥ 10000 nM | ≥ 1000 nM | – | – | – | O=C(O)[C@]1(NS(=O)(=O)c2ccc(-c3cc(C(F)(F)F)on3)o2)C[C@@H]1c1ccccc1 [Example 2-371] |
| – | – | – | < 100 nM | ≥ 1000 nM | < 100 nM | O=C(O)C1(NS(=O)(=O)c2ccc(-c3ccc(Cl)cc3)cc2)CC1c1cccc(NCc2cccnc2)c1 (stereo not drawn) [Example 1-3] |
| – | – | – | < 100 nM | ≥ 1000 nM | < 1000 nM | Nc1cccc(C2CC2(NS(=O)(=O)c2ccc(-c3ccc(Cl)cc3)s2)C(=O)O)c1 (stereo not drawn) [Example 1-128] |
| < 100 nM | ≥ 10000 nM | < 1000 nM | – | – | – | CC(C)SCC1(c2ccccc2)CC1(NS(=O)(=O)c1ccc(-c2ccc(Cl)cc2)s1)C(=O)O (stereo not drawn) [Example 2-349] |
| < 100 nM | < 1000 nM | < 100 nM | – | – | – | CC1[C@H](c2ccccc2)[C@]1(NS(=O)(=O)c1ccc(-c2cc(C(F)F)on2)cc1)C(=O)O (stereo partly drawn) [Example 2-401] |
| – | – | – | < 1000 nM | ≥ 10000 nM | < 1000 nM | O=C(O)C1(NS(=O)(=O)c2ccc(-c3ccc(Cl)cc3)s2)CC1c1ccc(CO)cc1 (stereo not drawn) [Example 2-226] |
| – | – | – | < 100 nM | ≥ 10000 nM | < 100 nM | CS(=O)(=O)Nc1cccc(C2CC2(NS(=O)(=O)c2ccc(-c3ccc(Cl)cc3)cc2)C(=O)O)c1 (stereo not drawn) [Example 1-38] |
| – | – | – | < 1000 nM | ≥ 1000 nM | < 100 nM | Cc1ccc(-c2ccc(S(=O)(=O)N[C@@]3(C(=O)O)C[C@@H]3c3ccccc3)s2)s1 [Example 2-39] |
| < 100 nM | < 1000 nM | < 100 nM | – | – | – | CC1[C@H](c2ccccc2)[C@]1(NS(=O)(=O)c1ccc2c(c1)Cc1cc(Cl)ccc1-2)C(=O)O (stereo partly drawn) [Example 2-569] |
| – | – | – | < 1000 nM | ≥ 1000 nM | < 100 nM | Nc1cccc(C2CC2(NS(=O)(=O)c2ccc(-c3ccc(Cl)cc3)cc2)C(=O)O)c1 (stereo not drawn) [Example 1-18] |
